Consider two molecules from US20230310438A1 (priority 2019, published 2023).

The subject of the test is whole blood of youth with OUD and healthy controls. It is filed as cell-based, human.

Entries after “also recorded” stand apart in the source; their conditions may differ.

As to `CCOCc1nc2c(N)nc3ccccc3c2n1CC(C)(C)O` [Formula R848, resiquimod], the Th-polarizing cytokine production result was “robust and balanced”.

Take monophosphoryl lipid A [MPLA]: the “induction of cytokines and chemokines such as IL-12p40, IL-6, CXCL8, CXCL10, CCL2 and TNF” value is “reduced; also recorded: impaired”.
